Assay results from patent US20210207070A1, “A CELL CULTURING PLATFORM, A CELL CULTURE SYSTEM, AND A METHOD FOR MODELING NEURAL ACTIVITY IN VITRO” (Tampere University Foundation sr, priority 2018, published 2021).

System: neurons
Assay: Activity of neurons in the closed-loop cell culturing platform, measured with electrodes in the guiding tunnels
Type: cell-based
Conditions: kainate acid added to the compartment Area 1; FIG. 5c
From the text: FIGS. 5a and 5b illustrate activity of neurons in a cell culturing platform according to an exemplifying and non-limiting embodiment. FIG. 5a illustrates signals measured with electrodes in the compartments of the cell culturing platform. The compartments are denoted with references ‘Area 1’, ‘Area 2’, and ‘Area 3’. As shown by black arrows in FIG. 5a, there is synchronous activity in the compartments Area 1, Area 2, and Area 3. […] of the cell culturing platform. The signals measured with electrodes in the guiding tunnels between the compartments Area 2 and Area 3 are denoted with a reference ‘2-3’, the signals measured with electrodes in the guiding tunnels between the compartments Area 1 and Area 2 are denoted with a reference ‘1-2’, and the signals measured with electrodes in the guiding tunnels between the compartments Area 3 and Area 1 are denoted with a reference ‘3-1’. As shown by black arrows in FIG. 5b, there is synchronous activity in the guiding tunnels between different pairs of the compartments.
FIG. 5c illustrates an effect of adding kainate acid to the compartment Area 1.

Q: Which “activity measured with electrodes in the guiding tunnels between the compartments Area 1 and Area 2” value does the source give for `C=C(C)[C@H]1CN[C@H](C(=O)O)[C@H]1CC(=O)O` [kainate acid] here?
A: increases the activity

Q: And the “activity measured with electrodes in the guiding tunnels between the compartments Area 2 and Area 3” value?
A: substantially on the base level

Q: And the “activity measured with electrodes in the guiding tunnels between the compartments Area 3 and Area 1” value?
A: increases the activity
